In US8030336B2, “Nicotinamide-based kinase inhibitors” (YM Biosciences Australia Pty Ltd, priority 2002, dated 2011):

Tests used:
Format in all cases: biochemical
[1] = target: T1, human JAK2 (Homo sapiens, UniProt O60674); assay: JAK2 kinase assay (ELISA or Alphascreen); settings: read-out: Jak2 inhibition of enzyme activity
T1 construct: The kinase domain of human JAK2 was amplified from U937mRNA; His tag (from the pFastBac HTc vector) (N); made in house; host or cells: baculovirus; Sf9 for virus, High Five insect cells for production
Excerpt: The kinase domain of human JAK2 was amplified from U937mRNA using the polymerase chain reaction with the following primers: […]
JAK2 PCR products were doped into the pFastBac HTc expression vector (Gibco) via the Sal I and Not I sites. The JAK2 plasmid was than transformed into competent DH10Bac cells (Gibco), and the recombinant baculovirus produced prepared for transfection into Sf9 insect cells.
(§1) Baculovirus preparations from each of the JAK family members were infected into five liters of High Five cells (Invitrogen) grown in High Five serum free medium (Invitrogen) to a cell density of approximately 1-2×10^6 cells/ml. Cells are infected with virus at a MOI of 0.8-3.0. Cells were harvested and lysed. JAK kinase domains were purified by affinity chromatography on a Probond (Invitrogen) nickel chelate affinity column.
(§2) Kinase assays were performed in a 96 well capture-based ELISA assay or in 384 well Optiplates (Packard) using an Alphascreen Protein Tyrosine Kinase kit. In either case using approximately 1.5 μg of affinity purified PTK domain in the presence of 50 mM HEPES, pH 7.5, 10 mM MgCl2, 150 mM NaCl and 10 μM-1 mM ATP. The biotinylated substrate biotin-EGPWLEEEEEAYGWMDF-NH2 (SEQ ID NO:9) (final concentration 5 μM) was used as substrate. In the ELISA assay tyrosine phosphorylation was quantitated following transfer to an avidin coated ELISA plate using peroxidase-linked anti-phosphotyrosine antibody PY20. In the Alphascreen assay, Alphascreen phosphotyrosine acceptor beads followed by streptavidin donor beads were added under subdued light. The ELISA plates were read on a BMG Fluorostar, the Alphascreen plates were read on a Packard Fusion Alpha. Inhibitors were added to the assays fifteen minutes prior to the addition of ATP. Inhibitors were added in aqueous […] concentrations never exceeding 1%.

[2] = target: T2, human JAK3 (Homo sapiens, UniProt P52333); assay: JAK3 kinase assay (ELISA or Alphascreen); settings: read-out: Jak3 inhibition of enzyme activity
T2 construct: The kinase domain of human JAK3 was amplified from U937mRNA; His tag (from the pFastBac HTb vector) (N); made in house; host or cells: baculovirus; Sf9 for virus, High Five insect cells for production
Excerpt: The kinase domain of human JAK3 was amplified from U937mRNA using the polymerase chain reaction with the following primers: […]
JAK3 PCR products were cloned into the pFastBac HTb expression vector (Gibco) via the Xho I and Kpn I sites. The JAK3 plasmid was then transformed into competent DH10Bac cells (Gibco), and the recombinant baculovirus produced prepared for transfection into Sf9 insect cells.
as §1, §2

[3] = target: T3, abl (Homo sapiens, UniProt P00519); assay: abl kinase assay (ELISA or Alphascreen); settings: read-out: abl inhibition of enzyme activity
T3 sequence (P00519 242-493 limits assumed): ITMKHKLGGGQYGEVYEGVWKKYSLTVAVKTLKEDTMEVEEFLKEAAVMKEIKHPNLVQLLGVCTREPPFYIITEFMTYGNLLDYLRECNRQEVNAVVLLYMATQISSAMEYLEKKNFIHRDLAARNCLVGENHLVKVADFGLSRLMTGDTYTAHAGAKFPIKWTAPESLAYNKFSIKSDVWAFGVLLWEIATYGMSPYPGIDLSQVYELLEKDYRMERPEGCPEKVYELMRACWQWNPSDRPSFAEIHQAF
Protocol: as §2

[4] = target: fes (Homo sapiens, UniProt P07332); assay: fes kinase assay (ELISA or Alphascreen); settings: read-out: fes inhibition of enzyme activity
Protocol: as §2

[5] = target: T4, fms (Homo sapiens, UniProt P07333); assay: fms kinase assay (ELISA or Alphascreen); settings: read-out: fms inhibition of enzyme activity
T4 sequence (P07333 582-910 limits assumed): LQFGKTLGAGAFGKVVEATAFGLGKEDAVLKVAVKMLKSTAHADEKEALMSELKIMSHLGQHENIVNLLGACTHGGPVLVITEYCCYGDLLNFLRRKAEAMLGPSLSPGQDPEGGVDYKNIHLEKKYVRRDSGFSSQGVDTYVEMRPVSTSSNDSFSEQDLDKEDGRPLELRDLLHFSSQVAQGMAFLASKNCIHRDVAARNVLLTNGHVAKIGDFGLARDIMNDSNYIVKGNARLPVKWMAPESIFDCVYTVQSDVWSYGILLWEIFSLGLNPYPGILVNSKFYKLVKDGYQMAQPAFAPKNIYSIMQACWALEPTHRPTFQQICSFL
Protocol: as §2

[6] = target: T5, Zap70 (Homo sapiens, UniProt P43403); assay: Zap70 kinase assay (ELISA or Alphascreen); settings: read-out: Zap70 inhibition of enzyme activity
T5 sequence (P43403 338-600 limits assumed): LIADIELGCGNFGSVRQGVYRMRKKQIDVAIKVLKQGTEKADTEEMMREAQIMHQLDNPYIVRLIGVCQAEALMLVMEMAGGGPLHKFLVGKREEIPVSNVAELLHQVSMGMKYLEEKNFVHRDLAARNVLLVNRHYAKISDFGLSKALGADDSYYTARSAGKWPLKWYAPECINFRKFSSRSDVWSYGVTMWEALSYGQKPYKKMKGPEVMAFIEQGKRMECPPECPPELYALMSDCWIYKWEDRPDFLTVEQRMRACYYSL
Protocol: as §2

fes, sequence (P07332 561-822 limits assumed, species assumed): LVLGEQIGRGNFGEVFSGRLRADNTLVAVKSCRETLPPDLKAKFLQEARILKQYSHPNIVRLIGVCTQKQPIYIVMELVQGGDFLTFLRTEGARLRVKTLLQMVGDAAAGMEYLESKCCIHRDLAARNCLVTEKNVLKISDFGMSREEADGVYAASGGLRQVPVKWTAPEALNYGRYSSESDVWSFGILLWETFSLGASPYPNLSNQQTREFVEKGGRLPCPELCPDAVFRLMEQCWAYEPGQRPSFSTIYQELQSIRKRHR
T2 sequence (P52333 822-1111 limits assumed): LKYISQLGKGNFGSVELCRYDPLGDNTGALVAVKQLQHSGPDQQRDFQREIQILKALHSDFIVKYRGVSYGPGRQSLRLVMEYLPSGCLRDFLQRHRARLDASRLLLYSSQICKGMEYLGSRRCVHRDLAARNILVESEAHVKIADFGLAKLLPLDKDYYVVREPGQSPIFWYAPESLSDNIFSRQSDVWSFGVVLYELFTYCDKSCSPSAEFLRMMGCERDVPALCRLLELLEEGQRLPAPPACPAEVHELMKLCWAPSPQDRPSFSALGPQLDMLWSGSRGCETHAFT
T1 sequence (O60674 849-1124 limits assumed): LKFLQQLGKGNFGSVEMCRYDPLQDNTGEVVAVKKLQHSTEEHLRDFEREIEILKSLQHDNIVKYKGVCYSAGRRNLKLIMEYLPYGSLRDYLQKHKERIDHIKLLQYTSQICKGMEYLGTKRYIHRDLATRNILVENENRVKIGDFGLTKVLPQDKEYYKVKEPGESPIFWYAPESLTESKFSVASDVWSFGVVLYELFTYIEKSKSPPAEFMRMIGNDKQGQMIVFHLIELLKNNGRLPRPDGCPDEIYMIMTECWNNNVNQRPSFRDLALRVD

inhibition at 10 µM [1]	inhibition at 10 µM [2]	inhibition at 10 µM [3]	inhibition at 10 µM [4]	inhibition at 10 µM [5]	inhibition at 10 µM [6]	SMILES
< 50%	< 50%	< 50%	< 50%	< 50%	< 50%	COc1ccc(NC(=O)c2cncc(-c3cc(OC)c(OC)c(OC)c3Cl)c2)c(OC)c1
< 50%	< 50%		< 50%	< 50%	< 50%	O=C(NCc1ccc(Cl)c(Cl)c1)c1cncc(-c2ccc3c(c2)OCO3)c1
< 50%	< 50%	< 50%	< 50%	< 50%	< 50%	O=C(Nc1ccccc1)c1cncc(-c2ccc3c(c2)OCO3)c1
< 50%	< 50%	< 50%	< 50%	< 50%	< 50%	COc1cc(-c2cncc(C(=O)Nc3ccc(N4CCOCC4)cc3)c2)c(Cl)c(OC)c1OC
< 50%	< 50%	< 50%	< 50%	< 50%	< 50%	Cc1ccc(C)c(NC(=O)c2cncc(-c3ccc4c(c3)OCO4)c2)c1
< 50%	< 50%	< 50%	≥ 50%	< 50%	< 50%	Cc1ccc(C)c(NC(=O)c2cncc(-c3cccs3)c2)c1
< 50%	< 50%		< 50%	< 50%	< 50%	O=C(NCc1ccco1)c1cncc(-c2cccnc2)c1
< 50%	< 50%	≥ 50%	≥ 50%	≥ 50%	< 50%	Cc1ccc(C)c(CNC(=O)c2cncc(-c3cc(C)c(O)c(C)c3)c2)c1
< 50%	< 50%	< 50%	< 50%	< 50%	< 50%	Cc1ccc(CNC(=O)c2cncc(-c3cc(C)c(O)c(C)c3)c2)cc1
< 50%	< 50%	< 50%		< 50%	< 50%	CN1CCN(c2ccc(NC(=O)c3cncc(-c4ccc(F)cc4)c3)cc2)CC1
< 50%	< 50%	< 50%	< 50%	< 50%	< 50%	COc1cc(-c2cncc(C(=O)NCc3cccc(F)c3)c2)c(Cl)c(OC)c1OC
< 50%		< 50%	< 50%	< 50%	< 50%	Cc1cc(-c2cncc(C(=O)N[C@@H](C)c3ccccc3)c2)cc(C)c1O
< 50%	< 50%	< 50%	< 50%		< 50%	COc1cc(-c2cncc(C(=O)NCc3ccc(C)cc3)c2)c(Cl)c(OC)c1OC
< 50%	< 50%	< 50%	< 50%		≥ 50%	COc1cccc(-c2cncc(C(=O)Nc3cc(F)ccc3C)c2)c1
< 50%	< 50%	< 50%		< 50%	< 50%	COc1cc(-c2cncc(C(=O)NC(CO)C(C)C)c2)c(Cl)c(OC)c1OC (stereo not shown)
	< 50%	< 50%	< 50%	< 50%	< 50%	Cc1cc(F)ccc1NC(=O)c1cncc(-c2cccs2)c1
< 50%	< 50%	≥ 50%	< 50%	< 50%	< 50%	Cc1ccc(F)cc1NC(=O)c1cncc(-c2ccc(O)cc2)c1
< 50%	< 50%	< 50%	< 50%	< 50%	< 50%	O=C(NCCO)c1cncc(-c2cccs2)c1
< 50%	< 50%	< 50%	< 50%	< 50%	< 50%	COc1cc(CNC(=O)c2cncc(-c3ccc(O)cc3)c2)cc(OC)c1
< 50%	< 50%		< 50%	< 50%	< 50%	O=C(NCCCn1ccnc1)c1cncc(-c2ccc(F)cc2)c1
< 50%	< 50%	< 50%	< 50%	< 50%	< 50%	COc1cccc(-c2cncc(C(=O)Nc3ccccc3C)c2)c1
< 50%	< 50%	< 50%	< 50%	< 50%	< 50%	COc1ccc(NC(=O)c2cncc(-c3ccc(F)cc3)c2)c(OC)c1
< 50%	< 50%	< 50%	< 50%		< 50%	Cc1ccccc1NC(=O)c1cncc(-c2ccc(F)cc2)c1
< 50%	< 50%		< 50%	< 50%	< 50%	CN1CCN(c2ccc(CNC(=O)c3cncc(-c4ccc(F)cc4)c3)cc2)CC1
< 50%	< 50%		< 50%	< 50%	< 50%	C[C@H](NC(=O)c1cncc(-c2cccnc2)c1)c1ccccc1
≥ 50%	< 50%	< 50%	< 50%	< 50%	< 50%	O=C(NCc1ccc(F)cc1)c1cncc(-c2ccc(F)cc2)c1
< 50%	< 50%		< 50%	< 50%	< 50%	C[C@@H](NC(=O)c1cncc(-c2ccc(F)cc2)c1)c1ccccc1
< 50%	< 50%	< 50%	< 50%		< 50%	COc1ccc(NC(=O)c2cncc(-c3cc(C)c(O)c(C)c3)c2)c(OC)c1
